Read-outs that look alike come from different tables or passages of the source.
How the values were obtained:
[1] = system: JAK-STAT signalling in HeLa cells; experiment: JAK-STAT signalling assay (OSM-triggered pSTAT1(2)-luciferase reporter in HeLa cells); assay type: cell-based; conditions: Homo sapiens, read-out: STAT signalling EC50
Summary of the method: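 Read-out is oncostatin M–driven pSTAT1(2)-luciferase activity, corrected by co-transfected LacZ β-galactosidase, in transiently transfected HeLa cells cultured overnight at 37 °C, 10% CO2. Inhibition percentages against positive and negative controls were plotted across doses to derive EC50.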

TNF-alpha release = experiment: Septic shock model (LPS-induced TNF release); assay type: in vivo, mouse; conditions: 30 mg/kg po, BALB/cJ mice, LPS ip; statistically significant
Experimental: Injection of lipopolysaccharide (LPS) induces a rapid release of soluble tumour necrosis factor (TNF-alpha) into the periphery. This model is used to analyse prospective blockers of TNF release in vivo.
Six BALB/cJ female mice (20 g) per group were treated at the intended dosing once, po. Thirty minutes later, LPS (15 μg/kg; E. Coli serotype 0111:B4) was injected ip. Ninety minutes later, mice were euthanized and blood was collected. Circulating TNF alpha levels were determined using commercially available ELISA kits. Dexamethasone (5 μg/kg) was used as a reference anti-inflammatory compound. Selected compounds are tested at one or multiple doses, e.g. 3 and/or 10 and/or 30 mg/kg, po.

[2] = Microsomal stability, human liver microsomes; assay type: in vitro ADME; conditions: percentage of compound remaining after 60 minutes, 3 μM compound
Summary of the method: (§1)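 Percent parent remaining after 60 min was determined by LCMS against a time-zero sample quenched before microsome addition. Incubations ran at 37°C with liver microsomes and a G6PDH-based NADPH-regenerating cofactor mix. Quench was MeOH or ACN (1:1).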

[3] = biological target: Recombinant human JAK3 catalytic domain (Homo sapiens (Human), UniProt P52333); experiment: JAK3 inhibition assay; assay type: biochemical; conditions: semi-quantitative score
Chain of Recombinant human JAK3 catalytic domain (P52333 781-1124): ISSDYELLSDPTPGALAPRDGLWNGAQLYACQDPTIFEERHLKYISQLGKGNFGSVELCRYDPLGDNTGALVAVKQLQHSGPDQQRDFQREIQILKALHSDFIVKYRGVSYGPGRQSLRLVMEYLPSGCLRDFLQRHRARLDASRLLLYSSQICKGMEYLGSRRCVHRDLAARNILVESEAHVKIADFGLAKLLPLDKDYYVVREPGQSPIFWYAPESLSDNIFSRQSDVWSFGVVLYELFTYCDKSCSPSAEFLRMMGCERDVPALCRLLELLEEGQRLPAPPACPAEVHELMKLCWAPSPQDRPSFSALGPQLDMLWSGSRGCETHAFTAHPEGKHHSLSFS

MMP13 in SW1353 cells = experiment: OSM/IL-1β signaling assay (MMP13 levels in SW1353 cells); assay type: cell-based; conditions: Homo sapiens, read-out: MMP13 EC50;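 note: secreted MMP13 captured by antibody, activated with APMA and its activity read by fluorescence, inhibition scaled between vehicle-treated triggered wells (0%) and untriggered wells (100%)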
[4] = Caco2 permeability (bi-directional); assay type: in vitro ADME, human; conditions: human, pH 7.4; for Papp A→B at 1 h, 10 µM: Caco-2, apical to basolateral, read-out: Papp (A2B); for efflux ratio at 1 h, 10 µM: Caco-2, ratio of PappB>A/PappA>B
Summary of the method: (§2)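 Compound concentrations in both chambers were measured by LC-MS/MS after 1 h incubation at 37 °C on an orbital shaker. Efflux ratio is PappB>A over PappA>B. Lucifer Yellow (50 μM in donor) confirmed layer integrity, with permeability of ≤100 nm/s required.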

[5] = biological target: Recombinant human JAK2 catalytic domain (Homo sapiens (Human), UniProt O60674); experiment: JAK2 inhibition assay; assay type: biochemical; conditions: semi-quantitative score
Chain of Recombinant human JAK2 catalytic domain (O60674 808-1132): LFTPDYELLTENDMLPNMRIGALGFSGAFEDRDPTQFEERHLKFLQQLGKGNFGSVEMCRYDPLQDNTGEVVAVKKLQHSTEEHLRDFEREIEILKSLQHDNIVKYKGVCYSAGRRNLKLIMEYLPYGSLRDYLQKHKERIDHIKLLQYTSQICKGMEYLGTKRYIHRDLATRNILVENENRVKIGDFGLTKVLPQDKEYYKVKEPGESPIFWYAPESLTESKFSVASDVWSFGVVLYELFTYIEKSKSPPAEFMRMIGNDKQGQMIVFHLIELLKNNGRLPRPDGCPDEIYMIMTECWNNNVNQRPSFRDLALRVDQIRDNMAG
Summary of the method: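 Activity was taken as vehicle cpm minus cpm with 10 μM staurosporine, and inhibition was expressed on that scale. Incubation was 90 min at 30 °C, followed by acid quench, phosphoric acid washes and Microscint counting. Compounds were tested as dose series to obtain IC50.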

[6] = Microsomal stability, rat liver microsomes; assay type: in vitro ADME; conditions: percentage of compound remaining after 60 minutes, 3 μM compound
Summary of the method: as §1

[7] = biological target: Recombinant human JAK1 catalytic domain (Homo sapiens (Human), UniProt P23458); experiment: JAK1 inhibition assay; assay type: biochemical; conditions: semi-quantitative score
Chain of Recombinant human JAK1 catalytic domain (P23458 850-1154): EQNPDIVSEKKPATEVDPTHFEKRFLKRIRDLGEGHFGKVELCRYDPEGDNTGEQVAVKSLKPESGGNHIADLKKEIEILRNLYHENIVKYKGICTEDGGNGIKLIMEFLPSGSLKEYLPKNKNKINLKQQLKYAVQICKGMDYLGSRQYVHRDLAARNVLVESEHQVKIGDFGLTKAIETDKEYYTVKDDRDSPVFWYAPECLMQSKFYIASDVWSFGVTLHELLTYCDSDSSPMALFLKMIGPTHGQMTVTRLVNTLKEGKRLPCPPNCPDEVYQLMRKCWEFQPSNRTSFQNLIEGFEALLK
Summary of the method: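 IC50 values come from dose-response series, with each point expressed as percent inhibition of cpm. Vehicle sets full activity and 10 μM staurosporine sets background. Incorporated radioactivity counted by scintillation after washing with 75 mM phosphoric acid.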

[8] = biological target: Recombinant human TYK2 catalytic domain (Homo sapiens (Human), UniProt P29597); experiment: TYK2 inhibition assay; assay type: biochemical; conditions: semi-quantitative score
Chain of Recombinant human TYK2 catalytic domain (P29597 871-1187): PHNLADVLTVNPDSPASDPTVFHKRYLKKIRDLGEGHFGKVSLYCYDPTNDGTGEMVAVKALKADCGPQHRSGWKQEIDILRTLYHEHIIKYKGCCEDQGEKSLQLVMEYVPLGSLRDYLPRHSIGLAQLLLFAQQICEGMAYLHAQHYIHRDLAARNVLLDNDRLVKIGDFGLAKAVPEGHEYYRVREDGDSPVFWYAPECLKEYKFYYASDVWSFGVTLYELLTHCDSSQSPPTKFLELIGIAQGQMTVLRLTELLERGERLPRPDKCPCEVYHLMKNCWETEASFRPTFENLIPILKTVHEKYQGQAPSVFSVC
Summary of the method: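 Recombinant human TYK2 catalytic domain; radiometric kinase reaction run 90 min at 30° C, stopped with phosphoric acid, washed and counted by scintillation.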

[9] = system: Collagen Induced Arthritis (CIA); experiment: Rat CIA model; assay type: in vivo; conditions: therapeutic dosing day 16 to day 30, p.o., statistical significance in several of the readouts
Experimental: Completed Freund's adjuvant (CFA) and incomplete Freund's adjuvant (IFA) were purchased from Difco. Bovine collagen type II (CII), lipopolysaccharide (LPS), and Enbrel were obtained from Chondrex (Isle d'Abeau, France); Sigma (P4252, L'Isle d'Abeau, France), Whyett (25 mg injectable syringe, France) Acros Organics (Palo Alto, Calif.), respectively. All other reagents used were of reagent grade and all solvents were of analytical grade.
Dark Agouti rats (male, 7-8 weeks old) were obtained from Harlan Laboratories (Maison-Alfort, France). Rats were kept on a 12 hours light/dark cycle (0700-1900). The temperature was maintained at 22° C., and food and water were provided ad libitum.
One day before the experiment, CII solution (2 mg/mL) was prepared with 0.05 M acetic acid and stored at 4° C. Just before the immunization, equal volumes of adjuvant (IFA) and CII were mixed by a homogenizer in a pre-cooled glass bottle in an ice water bath. Extra adjuvant and prolonged homogenization might be required if an emulsion is not formed. 0.2 mL of the emulsion was injected intradermally at the base of the tail of each rat on day 1, a second booster intradermal injection (CII solution at 2 mg/mL in CFA 0.1 mL saline) was performed on day 9. This immunization method was modified from published methods (Sims N A et al., (2004) Targeting osteoclasts with zoledronic acid prevents bone destruction in collagen-induced arthritis, Arthritis Rheum. 50 2338-2346; Jou et al., 2005).
The therapeutic effects of the test compounds were tested in the rat CIA model. Rats were randomly divided into equal groups and each group contained 10 rats. All rats were immunized on day 1 and boosted on day 9. Therapeutic dosing lasted from day 16 to day 30. The negative control group was treated with vehicle (MC 0.5%) and the positive control group with Enbrel (10 mg/kg, 3× week, s.c.). A compound of interest was typically tested at 3 doses, e.g. 3, 10, 30 mg/kg, p.o.
Arthritis was scored according the method of Khachigian 2006, Lin et al 2007 and Nishida et al. 2004. The swelling of each of the four paws was ranked with the arthritic score as follows: 0-no symptoms; 1-mild, but definite redness and swelling of one type of joint such as the ankle or wrist, or apparent redness and swelling limited to individual digits, regardless of the number of affected digits; 2-moderate redness and swelling of two or more types of joints; 3-severe redness and swelling of the entire paw including digits; 4-maximally inflamed limb with involvement of multiple joints (maximum cumulative clinical arthritis score 16 per animal) (Nishida et al., 2004).
Clinically, body weight loss is associated with arthritis (Shelton et al., 2005; Argiles et al., 1998; Rall, 2004; Walsmith et al., 2004). […] The change in body weight (%) after onset of arthritis was calculated as follows: […]
X-ray photos were taken of the hind paws of each individual animal. A random blind identity number was assigned to each of the photos, and the severity of bone erosion was ranked by two independent scorers with the radiological Larsen's score system as follows: 0-normal with intact bony outlines and normal joint space; 1—slight abnormality with any one or two of the exterior metatarsal bones showing slight bone erosion; 2—definite early abnormality with any three to five of the exterior metatarsal bones showing bone erosion; 3—medium destructive abnormality with all the exterior metatarsal bones as well as any one or two of the interior metatarsal bones showing definite bone erosions; 4—severe destructive abnormality with all the metatarsal bones showing definite bone erosion and at least one of the inner metatarsal joints completely eroded leaving some bony joint outlines partly preserved; 5—mutilating abnormality without bony outlines. This scoring system is a modification from Salvcmini et al., 2001; Bush et al., 2002; Sims et al., 2004; Jou et al., 2005. […]

Caco-2 cells = experiment: Caco2 permeability (bi-directional); assay type: in vitro ADME, human; conditions: Caco-2, apical to basolateral
Summary of the method: as §2

[10] = HeLa cells, OSM-triggered pSTAT1(2)-luciferase reporter
[11] = SW1353 cells, OSM and IL-1β triggered, MMP13 levels 48 hours after triggering

EC50 [1, 10] [nM]	Microsomal Stability Human (%) [2]	IC50 [3] [nM]	EC50 (MMP13 in SW1353 cells; [11]) [nM]	Papp A→B at 1 h, 10 µM [4] [×10⁻⁶ cm/s]	efflux ratio at 1 h, 10 µM [4]	IC50 [5] [nM]	Microsomal Stability Rat (%) [6]	IC50 [7] [nM]	IC50 [8] [nM]	EC50 ([1]; HeLa) [nM]	EC50 (MMP13 in SW1353 cells; SW1353, 48 h) [nM]	Papp (A2B) (Caco-2 cells)	Structure (SMILES)	reduction in the TNF release (TNF-alpha release) [%]	efficacy in all readouts of the rat CIA study [9]
101 to 500	*** (*** 51-75)	< 100	> 1000	23.4	0.82	< 100	**** (**** 76-100)	< 100					O=C(Nc1nc2cccc(-c3ccc(OCc4ccccc4)cc3)n2n1)C1CC1 [Compound 12, N-(5-(4-(benzyloxy)phenyl)-[1,2,4]triazolo[1,5-a]pyridin-2-yl)cyclopropanecarboxamide]	> 50	
501 to 1000	* (* 0-25)	501 to 1000	> 1000	31.8	1.02	< 100	* (* 0-25)	< 100	501 to 1000				Cc1cc(COc2ccc(-c3cccc4nc(NC(=O)C5CC5)nn34)cc2)no1 [Compound 52, N-(5-(4-((5-methylisoxazol-3-yl)methoxy)phenyl)-[1,2,4]triazolo[1,5-a]pyridin-2-yl)cyclopropanecarboxamide]	> 50	
	**** (**** 76-100)			4.65			*** (*** 51-75)			501 to 1000	> 1000		O=C(Nc1nc2cccc(-c3ccc(CN4CCS(=O)(=O)CC4)cc3)n2n1)C1CC1 [Compound 200, Cyclopropanecarboxylic acid {5-[4-(1,1-dioxo-thiomorpholin-4-ylmethyl)-phenyl]-[1,2,4]triazolo[1,5-a]pyridin-2-yl}-amide]	> 50	efficacious in all readouts

More lines, now with the values behind:

Structure (SMILES)	EC50 [1, 10] [nM]	Microsomal Stability Human (%) [2]	IC50 [3] [nM]	EC50 (MMP13 in SW1353 cells; [11]) [nM]	Papp A→B at 1 h, 10 µM [4] [×10⁻⁶ cm/s]	efflux ratio at 1 h, 10 µM [4]	IC50 [5] [nM]	Microsomal Stability Rat (%) [6]	IC50 [7] [nM]	IC50 [8] [nM]	EC50 ([1]; HeLa) [nM]	EC50 (MMP13 in SW1353 cells; SW1353, 48 h) [nM]	Papp (A2B) (Caco-2 cells)	reduction in the TNF release (TNF-alpha release) [%]	efficacy in all readouts of the rat CIA study [9]
O=C(NCCOc1ccccc1)c1ccc(-c2cccc3nc(NC(=O)C4CC4)nn23)cc1 [Compound 60, 4-(2-(cyclopropanecarboxamido)-[1,2,4]triazolo[1,5-a]pyridin-5-yl)-N-(2-phenoxyethyl)benzamide]	101 to 500	** (** 26-50)	101 to 500	501 to 1000	16.9	2.55	< 100	* (* 0-25)	< 100	501 to 1000				> 50	
O=C(Nc1nc2cccc(-c3ccc(C(=O)N4CCC(C(=O)c5ccccc5)CC4)cc3)n2n1)C1CC1 [Compound 74, N-(5-(4-(4-benzoylpiperidine-1-carbonyl)phenyl)-[1,2,4]triazolo[1,5-a]pyridin-2-yl)cyclopropanecarboxamide]	> 1000	* (* 0-25)	> 1000	> 1000	23.3	1.14	101 to 500	**** (**** 76-100)	< 100					> 50	
N#CC1CN(C(=O)c2ccc(-c3cccc4nc(NC(=O)C5CC5)nn34)cc2)C1 [Compound 328, Cyclopropanecarboxylic acid {5-[4-(3-cyano-azetidine-1-carbonyl)-phenyl]-[1,2,4]triazolo[1,5-a]pyridin-2-yl)-amide]	501 to 1000			> 1000									0.2! cmx10-6sec-1		

Reference: patent US10206907B2, “Compounds useful for the treatment of degenerative and inflammatory diseases” (GALAPAGOS NV, priority 2008, dated 2019)
